Measurements published in patent US10633350B2, “Diphenyl derivatives and uses thereof” (NOVARTIS AG, priority 2017, dated 2020).
Where two headings read alike, the source gives them in different places.

How the values were obtained:
FoxO3a = FoxO3a inhibition assay (GFP-FoxO3a nuclear to cytoplasmic translocation) in U2OS GFP-FoxO3a H212R reporter cells; format: cell-based; conditions: serum starved overnight, 30 minutes compound treatment, ratio of nuclear to cytosolic GFP intensity, AC50 = concentration that results in 50% activation or inhibition, read-out: FoxO AC50
Protocol: (§1) Phosphorylation of Akt on S473 and FoxO3a nuclear to cytoplasmic translocation were used as readouts of PI3K/Akt/mTOR pathway activation downstream of growth factor signaling.
(§2) Reporter cell line. U2OS GFP-FoxO3a H212R reporter cell line was established by transducing U2OS cells with the retroviral plasmid pLEGFP-C1 containing FoxO3a H212R transgene and selecting for G418 resistant clones.
(§3) Reporter assay. U2OS GFP-FoxO3a H212R cells were plated in 384-well plates at 4000 cells per well in 30 microliters of McCoy's 5A medium containing 10% FBS. On day 1 the cells were washed with serum free medium and serum starved overnight. On day 2 the cells were treated with different doses of the compounds for 30 minutes, fixed with 4% Paraformaldehyde for 1 hour and stained with Phospho-AKT (Ser473) antibody (Cell Signaling Technology, catalog #4060) overnight at 4° C. After nuclei staining with Hoechst 33342 (Life Technologies, catalog # H3570) the plates were imaged with InCell 2000 (GE Healthcare Bio-Sciences). FoxO3a inhibition activity is calculated as the ratio of nuclear to cytosolic GFP intensity in percent. Akt activation is measured as the total cellular intensity of Phospho-Akt antibody staining in percent. DMSO control is set as 0% activity.

Akt = Akt activation assay (Phospho-AKT (Ser473) antibody staining) in U2OS GFP-FoxO3a H212R reporter cells; format: cell-based; conditions: serum starved overnight, 30 minutes compound treatment, total cellular intensity of Phospho-Akt (Ser473) antibody staining, AC50 = concentration that results in 50% activation or inhibition
Protocol: as §1, §2, §3

With Cc1cc(C(N)=O)nn1-c1ccc(Cc2ccc(C3CCN(C)C3)cc2)cc1 (single isomer, unassigned) [Example 5-1, 5-methyl-1-(4-(4-(1-methylpyrrolidin-3-yl)benzyl)phenyl)-1H-pyrazole-3-carboxamide] the AC50 (FoxO3a) was 295 nM and the AC50 (Akt; Homo sapiens, 0.5 h) was 1320 nM.
For Cc1cc(C(N)=O)nn1-c1ccc(Cc2ccc(C3CCN(C)C3)cc2)cc1 (single isomer, unassigned) [Example 5-2, 5-methyl-1-(4-(4-(1-methylpyrrolidin-3-yl)benzyl)phenyl)-1H-pyrazole-3-carboxamide], the AC50 (FoxO3a) was 792 nM and the AC50 (Akt) was 2500 nM.
Cc1nc(C(N)=O)nn1-c1ccc(C(C)(C)c2ccc(Cl)cc2)cc1 [Example 1, 1-(4-(2-(4-chlorophenyl)propan-2-yl)phenyl)-5-methyl-1H-1,2,4-triazole-3-carboxamide] showed an AC50 (FoxO3a; Homo sapiens, 0.5 h) of 576 nM and an AC50 (Akt; Homo sapiens, 0.5 h) of 1550 nM.
Work on Cc1cc(C(N)=O)nn1-c1ccc(Cc2ccc3c(c2)OCc2ccccc2-3)cc1 [Example 2, 1-(4-((6H-benzo[c]chromen-3-yl)methyl)phenyl)-5-methyl-1H-pyrazole-3-carboxamide] yielded an AC50 (FoxO3a; Homo sapiens, 0.5 h) of 137 nM and an AC50 (Akt; Homo sapiens, 0.5 h) of 326 nM.
Work on Cc1cc(C(N)=O)nn1-c1ccc(Cc2ccc(-c3ccc(CN4CCCC4)cc3)cc2)cc1 [Example 3-1, 5-methyl-1-(4-((4′-(pyrrolidin-1-ylmethyl)-[1,1′-biphenyl]-4-yl)methyl)phenyl)-1H-pyrazole-3-carboxamide] yielded an AC50 (FoxO3a; Homo sapiens, 0.5 h) of 36 nM and an AC50 (Akt; Homo sapiens, 0.5 h) of 135 nM.
CCN(CC)Cc1ccc(-c2ccc(Cc3ccc(-n4nc(C(N)=O)cc4C)cc3)cc2)cc1 [Example 3-2, 1-(4-((4′-((diethylamino)methyl)-[1,1′-biphenyl]-4-yl)methyl)phenyl)-5-methyl-1H-pyrazole-3-carboxamide] showed an AC50 (FoxO3a; Homo sapiens, 0.5 h) of 236 nM and an AC50 (Akt; Homo sapiens, 0.5 h) of 341 nM.
Compound Cc1cc(C(N)=O)nn1-c1ccc(Cc2ccc(-c3ccc4c(c3)CCN(C)C4)cc2)cc1 [Example 3-3, 5-methyl-1-(4-(4-(2-methyl-1,2,3,4-tetrahydroisoquinolin-6-yl)benzyl)phenyl)-1H-pyrazole-3-carboxamide] has an AC50 (FoxO3a; Homo sapiens, 0.5 h) of 40 nM and an AC50 (Akt; Homo sapiens, 0.5 h) of 109 nM.
Compound Cc1cc(C(N)=O)nn1-c1ccc(Cc2ccc(-c3ccc4c(c3)CNC4)cc2)cc1 [Example 3-4, 1-(4-(4-(isoindolin-5-yl)benzyl)phenyl)-5-methyl-1H-pyrazole-3-carboxamide] has an AC50 (FoxO3a; Homo sapiens, 0.5 h) of 75 nM and an AC50 (Akt; Homo sapiens, 0.5 h) of 268 nM.
Cc1cc(C(N)=O)nn1-c1ccc(Cc2ccc(-c3ccncc3)cc2)cc1 [Example 3-5, 5-methyl-1-(4-(4-(pyridin-4-yl)benzyl)phenyl)-1H-pyrazole-3-carboxamide] gave an AC50 (FoxO3a; Homo sapiens, 0.5 h) of 61 nM and an AC50 (Akt; Homo sapiens, 0.5 h) of 156 nM.
Cc1cc(C(N)=O)nn1-c1ccc(Cc2ccc(-c3ccc(S(C)(=O)=O)cc3)cc2)cc1 [Example 3-6, 5-methyl-1-(4-((4′-(methylsulfonyl)-[1,1′-biphenyl]-4-yl)methyl)phenyl)-1H-pyrazole-3-carboxamide] showed an AC50 (FoxO3a; Homo sapiens, 0.5 h) of 28 nM and an AC50 (Akt; Homo sapiens, 0.5 h) of 66 nM.
Cc1cc(C(N)=O)nn1-c1ccc(Cc2ccc(-c3ccccc3)cc2)cc1 [Example 3-8, 1-(4-([1,1′-biphenyl]-4-ylmethyl)phenyl)-5-methyl-1H-pyrazole-3-carboxamide] showed an AC50 (FoxO3a; Homo sapiens, 0.5 h) of 383 nM and an AC50 (Akt; Homo sapiens, 0.5 h) of 960 nM.
Work on Cc1nnc(-c2ccc(-c3ccc(Cc4ccc(-n5nc(C(N)=O)cc5C)cc4)cc3)cc2)o1 [Example 3-9, 5-methyl-1-(4-((4′-(5-methyl-1,3,4-oxadiazol-2-yl)-[1,1′-biphenyl]-4-yl)methyl)phenyl)-1H-pyrazole-3-carboxamide] yielded an AC50 (FoxO3a; Homo sapiens, 0.5 h) of 29 nM and an AC50 (Akt; Homo sapiens, 0.5 h) of 63 nM.
For Cc1cc(C(N)=O)nn1-c1ccc(Cc2ccc(-c3cccnc3)cc2)cc1 [Example 3-10, 5-methyl-1-(4-(4-(pyridin-3-yl)benzyl)phenyl)-1H-pyrazole-3-carboxamide], the AC50 (FoxO3a; Homo sapiens, 0.5 h) was 110 nM and the AC50 (Akt; Homo sapiens, 0.5 h) was 497 nM.
Cc1cc(C(N)=O)nn1-c1ccc(Cc2ccc(C3=CCN(C(=O)CN(C)C)CC3)cc2)cc1 [Example 3-11, 1-(4-(4-(1-(dimethylglycyl)-1,2,3,6-tetrahydropyridin-4-yl)benzyl)phenyl)-5-methyl-1H-pyrazole-3-carboxamide] gave an AC50 (FoxO3a; Homo sapiens, 0.5 h) of 132 nM and an AC50 (Akt; Homo sapiens, 0.5 h) of 504 nM.
With Cc1cc(C(N)=O)nn1-c1ccc(Cc2ccc(-c3ccc(CN4CCN(C)CC4)cc3)cc2)cc1 [Example 3-12, 5-methyl-1-(4-((4′-((4-methylpiperazin-1-yl)methyl)-[1,1′-biphenyl]-4-yl)methyl)phenyl)-1H-pyrazole-3-carboxamide] the AC50 (FoxO3a; Homo sapiens, 0.5 h) was 36 nM and the AC50 (Akt; Homo sapiens, 0.5 h) was 122 nM.
Cc1cc(C(N)=O)nn1-c1ccc(Cc2ccc(-c3ccc4c(c3)CN(C)C4)cc2)cc1 [Example 3-13, 5-methyl-1-(4-(4-(2-methylisoindolin-5-yl)benzyl)phenyl)-1H-pyrazole-3-carboxamide] was tested, and the AC50 (FoxO3a; Homo sapiens, 0.5 h) was 57 nM and the AC50 (Akt; Homo sapiens, 0.5 h) was 167 nM.
For Cc1cc(C(N)=O)nn1-c1ccc(Cc2ccc(-c3ccc4c(c3)CCNC4)cc2)cc1 [Example 3-14, 5-methyl-1-(4-(4-(1,2,3,4-tetrahydroisoquinolin-6-yl)benzyl)phenyl)-1H-pyrazole-3-carboxamide], the AC50 (FoxO3a; Homo sapiens, 0.5 h) was 53 nM and the AC50 (Akt; Homo sapiens, 0.5 h) was 161 nM.
Cc1cc(C(N)=O)nn1-c1ccc(Cc2ccc(C3=CCN(C)CC3)cc2)cc1 [Example 3-15, 5-methyl-1-(4-(4-(1-methyl-1,2,3,6-tetrahydropyridin-4-yl)benzyl)phenyl)-1H-pyrazole-3-carboxamide] was tested, and the AC50 (FoxO3a; Homo sapiens, 0.5 h) was 31 nM and the AC50 (Akt; Homo sapiens, 0.5 h) was 83 nM.
Compound Cc1cc(C(N)=O)nn1-c1ccc(Cc2ccc(C3CCN(C)CC3)cc2)cc1 [Example 4, 5-methyl-1-(4-(4-(1-methylpiperidin-4-yl)benzyl)phenyl)-1H-pyrazole-3-carboxamide] has an AC50 (FoxO3a; Homo sapiens, 0.5 h) of 325 nM and an AC50 (Akt; Homo sapiens, 0.5 h) of 1220 nM.
Cc1cc(C(N)=O)nn1-c1ccc(Cc2ccc(-c3ccc(CN(C)C)nc3)cc2)cc1 [Example 5-3, 1-(4-(4-(6-((dimethylamino)methyl)pyridin-3-yl)benzyl)phenyl)-5-methyl-1H-pyrazole-3-carboxamide] showed an AC50 (FoxO3a; Homo sapiens, 0.5 h) of 136 nM and an AC50 (Akt; Homo sapiens, 0.5 h) of 425 nM.
In the case of Cc1cc(C(N)=O)nn1-c1ccc(Cc2ccc(-c3ccnc(CN(C)C)c3)cc2)cc1 [Example 5-4, 1-(4-(4-(2-((dimethylamino)methyl)pyridin-4-yl)benzyl)phenyl)-5-methyl-1H-pyrazole-3-carboxamide], the AC50 (FoxO3a; Homo sapiens, 0.5 h) is reported as 160 nM and the AC50 (Akt; Homo sapiens, 0.5 h) is reported as 789 nM.
Compound Cc1cc(C(N)=O)nn1-c1ccc(Cc2ccc(-c3ccc(CN4CCCC4)nc3)cc2)cc1 [Example 5-5, 5-methyl-1-(4-(4-(6-(pyrrolidin-1-ylmethyl)pyridin-3-yl)benzyl)phenyl)-1H-pyrazole-3-carboxamide] has an AC50 (FoxO3a; Homo sapiens, 0.5 h) of 152 nM and an AC50 (Akt; Homo sapiens, 0.5 h) of 426 nM.
Compound Cc1cc(C(N)=O)nn1-c1ccc(Cc2ccc(-c3cncc(CN(C)C)c3)cc2)cc1 [Example 5-6, 1-(4-(4-(5-((dimethylamino)methyl)pyridin-3-yl)benzyl)phenyl)-5-methyl-1H-pyrazole-3-carboxamide] has an AC50 (FoxO3a; Homo sapiens, 0.5 h) of 312 nM and an AC50 (Akt; Homo sapiens, 0.5 h) of 1040 nM.
Cc1cc(C(N)=O)nn1-c1ccc(Cc2ccc(C3=CCCN(C)CC3)cc2)cc1 [Example 5-7, 5-methyl-1-(4-(4-(1-methyl-2,3,6,7-tetrahydro-1H-azepin-4-yl)benzyl)phenyl)-1H-pyrazole-3-carboxamide] gave an AC50 (FoxO3a; Homo sapiens, 0.5 h) of 412 nM and an AC50 (Akt; Homo sapiens, 0.5 h) of 1370 nM.
In the case of Cc1nc(C(N)=O)nn1-c1ccc(Cc2ccc(-c3ccc(C(C)(C)NCC(C)(C)O)cc3)cc2)cc1 [Example 64, 1-(4-((4′-(2-((2-hydroxy-2-methylpropyl)amino)propan-2-yl)-[1,1′-biphenyl]-4-yl)methyl)phenyl)-5-methyl-1H-1,2,4-triazole-3-carboxamide], the AC50 (FoxO3a; Homo sapiens, 0.5 h) is reported as 62 nM.
